# Laboratory results published in patent publication US20200255478A1, “NOVEL COMPOUNDS ACTIVATING THE NRF2 PATHWAY” (Almirall, S.A., priority 2017, published 2020).
# Read-outs that look alike come from different tables or passages of the source. Starred links: 1 amine or outer side, 2 acyl side, 3 side chain; linkers in the order of their positions; H or OH if unused. Positions of bridges follow the written chain, without caps; N, C: chain ends. Residues, ends and D or L forms follow the SMILES beside them. *: point of attachment. mXylylene = c1cc(C[*:1])cc(C[*:2])c1; X6 = c1ccc2nc(C[*:2])c(C[*:1])nc2c1; Stearoyl = CCCCCCCCCCCCCCCCCC(=O)*; βAla = NCCC(=O)O
# Molecular target: Keap1-Maltose Binding Protein (MBP tag) (Homo sapiens, UniProt Q14145)
# Experiment: Nrf2-Keap1 HTRF (TR-FRET) binding assay: displacement of biotinylated ETGE peptide from Keap1-MBP
# [1] = HTRF (TR-FRET), displacement of ETGE-biotin from Keap1-MBP, values banded into grades, read-out: Binding (IC50) ETGE-Keap1
# Sequence of Keap1-Maltose Binding Protein (MBP tag) (Q14145 whole entry): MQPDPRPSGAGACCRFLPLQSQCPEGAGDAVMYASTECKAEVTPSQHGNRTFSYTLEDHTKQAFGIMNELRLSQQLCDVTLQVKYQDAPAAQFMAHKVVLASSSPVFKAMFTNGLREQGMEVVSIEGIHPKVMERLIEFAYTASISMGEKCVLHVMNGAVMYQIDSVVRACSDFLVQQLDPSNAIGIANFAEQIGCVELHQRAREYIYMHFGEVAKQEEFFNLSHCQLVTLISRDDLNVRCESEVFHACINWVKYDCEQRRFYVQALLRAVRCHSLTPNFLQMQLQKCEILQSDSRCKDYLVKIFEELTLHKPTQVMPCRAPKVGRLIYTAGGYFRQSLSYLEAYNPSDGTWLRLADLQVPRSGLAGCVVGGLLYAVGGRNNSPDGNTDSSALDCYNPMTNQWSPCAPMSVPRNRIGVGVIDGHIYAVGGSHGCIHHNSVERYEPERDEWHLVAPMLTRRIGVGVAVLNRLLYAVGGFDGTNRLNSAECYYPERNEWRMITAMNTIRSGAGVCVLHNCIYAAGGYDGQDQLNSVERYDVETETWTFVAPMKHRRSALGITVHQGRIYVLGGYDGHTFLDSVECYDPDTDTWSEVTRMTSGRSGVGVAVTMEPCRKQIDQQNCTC
Compound,IC50 [nM],IC50 [1] [nM]
"CCCCCCCCCCCCCCCCCCCC(=O)N[C@H]1C[C@H]2C(=O)N[C@@H](CCC(N)=O)C(=O)N[C@H]3CSCC4(COC4)CSC[C@H](NC(=O)[C@H](CCC(=O)O)NC(=O)CNC(=O)[C@H]([C@@H](C)O)NC(=O)[C@H](CCC(=O)O)NC(=O)[C@@H]4CCCN4C(=O)[C@H](CC(=O)O)NC3=O)C(=O)N[C@@H](CC(C)C)C(=O)N3CCC[C@@H]3C(=O)N2C1 [Example 95, {[&^1Pro((4S)-NH-Arachidyl)-Gln-Cys(&^2)-Asp-Pro-Glu-Thr-Gly-Glu-Cys(&^3)-Leu-D-Pro&^1][&^2(3,3-oxetanediyl)dimethylene&^3]}]",< 1,
"CCCCCCCCCCCCCCCCCC(=O)NCCC(=O)N[C@@H](CC(C)C)C(=O)N[C@@H](CC(C)C)C(=O)N[C@H]1CSCC2(COC2)CSC[C@@H](C(=O)N[C@@H](CC(C)C)C(=O)N[C@@H](CC(C)C)C(N)=O)NC(=O)[C@H](CCC(=O)O)NC(=O)CNC(=O)[C@H]([C@@H](C)O)NC(=O)[C@H](CCC(=O)O)NC(=O)[C@@H]2CCCN2C(=O)[C@H](CC(=O)O)NC1=O [Example 99, {[Stearyl-βAla-Leu-Leu-Cys(&^1)-Asp-Pro-Glu-Thr-Gly-Glu-Cys(&^2)-Leu-Leu-NH2][&^1(3,3-oxetanediyl)dimethylene&^2]}]",,< 1
"CCCCCCCCCCCCCCCCCC(=O)NCCC(=O)N[C@@H](CC(C)C)C(=O)N[C@@H](CCC(N)=O)C(=O)N[C@H]1CSCc2nc3ccccc3nc2CSC[C@@H](C(=O)N[C@@H](CC(C)C)C(=O)N2CCC[C@H]2C(N)=O)NC(=O)[C@H](CCC(=O)O)NC(=O)CNC(=O)[C@H]([C@@H](C)O)NC(=O)[C@H](CCC(=O)O)NC(=O)[C@@H]2CCCN2C(=O)[C@H](CC(=O)O)NC1=O [Example 61, {[Stearyl-βAla-Leu-Gln-Cys(&^1)-Asp-Pro-Glu-Thr-Gly-Glu-Cys(&^2)-Leu-Pro-NH2][&^1(quinoxaline)2,3-diyldimethylene&^2]}] ({Stearoyl-βAla}-LQCDPETGECLP-NH2; linker 3-10 via X6)",,1 to 100
"CC(C)C[C@@H]1NC(=O)[C@@H]2CCCN2C(=O)[C@H](CC(C)C)NC(=O)[C@@H]2CSCc3cccc(c3)CSC[C@H](NC(=O)[C@H](CCC(N)=O)NC1=O)C(=O)N[C@@H](CC(=O)O)C(=O)N[C@@H](CCC(=O)O)C(=O)N[C@@H](CCC(=O)O)C(=O)N[C@@H]([C@@H](C)O)C(=O)NCC(=O)N[C@@H](CCC(=O)O)C(=O)N2 [Example 4, {[&^1Leu-Gln-Cys(&^2)-Asp-Glu-Glu-Thr-Gly-Glu-Cys(&^3)-Leu-Pro&^1][&^2(1,3-phenylenediyl)dimethylene&^3]}] (cyclo(CDEETGECLPLQ); linker 1-8 via mXylylene)",< 1,
CC(C)C[C@H](NC(=O)[C@@H]1CSCc2c(F)c(F)c(F)c(F)c2CSC[C@H](NC(=O)[C@H](CCC(N)=O)NC(=O)[C@@H](N)CC(C)C)C(=O)N[C@@H](CC(=O)O)C(=O)N2CCC[C@H]2C(=O)N[C@@H](CCC(=O)O)C(=O)N[C@@H]([C@@H](C)O)C(=O)NCC(=O)N[C@@H](CCC(=O)O)C(=O)N1)C(=O)N1CCC[C@H]1C(=O)NCCC(=O)N[C@@H](CCCNC(=N)N)C(=O)N[C@@H](CCCCN)C(=O)N[C@@H](CCCCN)C(=O)N[C@@H](CCCNC(=N)N)C(=O)N[C@@H](CCCNC(=N)N)C(=O)N[C@@H](CCC(N)=O)C(=O)N[C@@H](CCCNC(=N)N)C(=O)N[C@@H](CCCNC(=N)N)C(=O)N[C@@H](CCCNC(=N)N)C(N)=O [Example 56],< 1,
CC(C)C[C@H](NC(=O)[C@H](CC(C)C)NC(=O)[C@@H]1CSCc2ccccc2CSC[C@H](NC(=O)[C@H](CC(C)C)NC(=O)[C@@H](N)CC(C)C)C(=O)N[C@@H](CC(=O)O)C(=O)N2CCC[C@H]2C(=O)N[C@@H](CCC(=O)O)C(=O)N[C@@H]([C@@H](C)O)C(=O)NCC(=O)N[C@@H](CCC(=O)O)C(=O)N1)C(=O)NCCC(=O)N[C@@H](CCCNC(=N)N)C(=O)N[C@@H](CCCCN)C(=O)N[C@@H](CCCCN)C(=O)N[C@@H](CCCNC(=N)N)C(=O)N[C@@H](CCCNC(=N)N)C(=O)N[C@@H](CCC(N)=O)C(=O)N[C@@H](CCCNC(=N)N)C(=O)N[C@@H](CCCNC(=N)N)C(=O)N[C@@H](CCCNC(=N)N)C(N)=O [Example 60],,< 1
"CCCCCCCCCCCCCCCCCC(=O)N[C@H]1CCCCNC(=O)[C@H]2CCCN2C(=O)[C@H](CC(C)C)NC(=O)[C@@H]2CSCc3ccccc3CSC[C@H](NC(=O)[C@H](CCC(N)=O)NC1=O)C(=O)N[C@@H](CC(=O)O)C(=O)N1CCC[C@H]1C(=O)N[C@@H](CCC(=O)O)C(=O)N[C@@H]([C@@H](C)O)C(=O)NCC(=O)N[C@@H](CCC(=O)O)C(=O)N2 [Example 92, {[Stearyl-Lys(&^1)-Gln-Cys(&^2)-Asp-Pro-Glu-Thr-Gly-Glu-Cys(&^3)-Leu-D-Pro&^1][&^2(1,2-phenylenediyl)dimethylene&^3]}]",,< 1
